Measured values taken from EP4578857A1, “CRYPTOLEPINE SALT DERIVATIVE, AND PREPARATION METHOD THEREFOR AND USE THEREOF” (Nankai University, priority 2023, dated 2025).
Where two headings read alike, the source gives them in different places.

How the values were obtained:
Format in all cases: in vivo
[1] = system: tobacco Mosaic virus (TMV); test: Anti-TMV activity: living passivation activity test; details: for inhibition at 500 µg/mL: Tobacco mosaic virus, read-out: Relative inhibition rate (%) Living passivation activity test
Protocol: (§1) Determination of anti-tobacco Mosaic virus (TMV) activity by the following procedure:
(§2) The virus crude extract was centrifuged with polyethylene glycol at twice and refrigerated at 4°C for use. The absorbance of 260nm wavelength was determined by ultraviolet spectrophotometer, and the virus concentration was calculated according to the formula. Virus concentration(mg/ml) = (A260 × dilution ratio)(/E)^0.10 1cm^260nm . [formula]
(§3) After weighing, cryptolepine salt derivative, ningnanmycin and the original drug of ribavirin were dissolved in DMF to obtain 1×10^5µg/mL mother solution, and then diluted to the required concentration with 1‰ Tween 80 aqueous solution.
Select the 3-5 leaf stage of tobacco Xanthi nc with uniform growth, mix the test sample agent with the same volume of virus juice to passivate for 30min, friction inoculation, virus concentration 20µg/mL, the leaf was washed with running water after inoculation, repeat 3 times, set 1‰ Tween 80 aqueous solution as control. 3 days later, the number of disease spots was calculated. [formula]
Anti-tobacco Mosaic virus passivation activity test of all compounds was at a treatment dose of 500µg/mL. The positive control was the commercial anti-plant virus agent viriazole.

[2] = system: tobacco Mosaic virus (TMV); test: Anti-TMV activity: live protection function; details: for inhibition at 500 µg/mL: Tobacco mosaic virus, read-out: Relative inhibition rate (%) Live protection function; for TMV activity: compared with ribavirin
Protocol: as §1, §2, §3
Select the 3-5 leaf stage of tobacco Xanthi nc with uniform growth, spray the whole plant, repeat each treatment 3 times, and set 1‰ Tween80 aqueous solution as control. 24h later, the leaf surface was coated with emery (500 mesh), the disease venom was dipped with a brush, and the whole leaf surface was gently rubbed twice along the direction of the branch pulse by using the brush, the leaf was supported by palm of hand, the virus concentration was 10µg/mL, and the leaf was washed by water after inoculation. After 3 days, the number of disease spots was recorded and the prevnetion and control effect was calculated.

[3] = system: tobacco Mosaic virus (TMV); test: Anti-TMV activity: live treatment effect; details: for inhibition at 500 µg/mL: Tobacco mosaic virus, 72 h, read-out: Relative inhibition rate (%) Live treatment effect
Protocol: as §1, §2, §3
Select the 3-5 leaf stage of tobacco Xanthi nc with uniform growth, use a brush to vaccinate the virus in the whole leaf, the virus concentration is 10µg/mL, and the leaf was washed with running water after inoculation. After the leaves were dried, the whole plant was sprayed with test sample, repeated 3 times every treatment, and 1‰ Tween 80 aqueous solution was set as control. After 3 days, the number of disease spots was recorded and the prevnetion and control effect was calculated.

[4] = system: rice sheath blight strains; test: Bactericidal activity test: resistance to rice sheath blight (live pot test); details: for pest or weed control at 400 µg/mL: Oryza sativa, 144 h
Protocol: Bactericidal activity test, the determination procedure is as follows: Test of resistance to rice sheath blight: Select uniformly growing rice seedlings and spray them on the leaves at the set concentration, set a water sprayring group as blank control, every treatment was repeated twice. After 24h, the rice seedlings were inoculated with rice sheath blight strains and placed at room temperature (25±4°C) for normal management after inoculation. The prevention and control effect was investigated by visual inspection 6 days after inoculation.

[5] = 400mg/L leaf spray on rice seedlings, inoculated after 24h, visual inspection 6 days after inoculation, read-out: Resistance to rice sheath blight (%)/400mg/L
[6] = 500µg/mL, Table 4 (all three modes)
[7] = read-out: Resistance to rice sheath blight (%)/400mg/L
[8] = read-out: bactericidal activity against rice sheath blight
[9] = Treatment dose 500 mg/L, sample mixed with virus juice for 30min, then inoculated on tobacco Xanthi nc, virus 20µg/mL, 3 days
[10] = Treatment dose 500 mg/L, tobacco Xanthi nc sprayed 24h before inoculation, virus 10µg/mL, disease spots counted after 3 days
[11] = Treatment dose 500 mg/L, tobacco Xanthi nc inoculated (virus 10µg/mL), then sprayed, disease spots counted after 3 days

Compound | inhibition at 500 µg/mL [1] [%] | inhibition at 500 µg/mL [2] [%] | inhibition at 500 µg/mL [3] [%] | pest or weed control at 400 µg/mL [4, 5] [%] | pest or weed control at 400 µg/mL [4, 7] [%] | also measured
CNCC(=O)N[C@@H](CO)C(=O)N[C@H]1[C@H](O)[C@@H](O)[C@H](n2ccc(N)nc2=O)O[C@@H]1C(N)=O [Ningnanmycin, reference compound] | 59 ± 2.2 | 58.3 ± 4.1 | 56.9 ± 2.8 | – | – | –
C[n+]1c2ccccc2c(NCC(C)(C)N)c2[nH]c3ccccc3c21 [Example 36] | 28.7 ± 1.1 | 29.8 ± 2.1 | 30.1 ± 0.2 | 35 ± 5 | – | –
Cc1ccc(S(=O)(=O)n2c3ccccc3c3c2cc2ccccc2[n+]3CC(C)(C)C)cc1 [Example 20] | 53 ± 2.1 | 51.3 ± 3.5 | 48.5 ± 3 | – | 55 ± 5 | antiTMV activity ([2]; 500µg/mL, compared with commercial Ningnanmycin, Table 4 (all three modes)): comparable to that of commercial Ningnanmycin; TMV activity [2, 6]: better TMV activity than the ribavirin; pest or weed control at 400 µg/mL [4, 8]: > 50%
Cc1nc(C(F)(F)F)c(C(=O)Nc2c(Br)cc(OC(F)(F)F)cc2Br)s1 [Thifluzamide, reference compound] | – | – | – | 100 | – | –
C[n+]1c2ccccc2c(NCC2CCCCC2)c2[nH]c3ccccc3c21 [Example 30] | 30 ± 0.8 | 20.9 ± 2.9 | 21.5 ± 1.1 | 35 ± 5 | – | –
Cc1ccc(S(=O)(=O)n2c3ccc(F)cc3c3c2cc2ccccc2[n+]3C)cc1 [Example 4] | 14.1 ± 1.3 | 21.6 ± 3.4 | 18.6 ± 1.2 | – | 60 | pest or weed control at 400 µg/mL [4, 8]: > 50%
Cc1ccc(S(=O)(=O)n2c3ccccc3c3c2cc2cc(F)ccc2[n+]3C)cc1 [Example 11] | 22.3 ± 1 | 27.6 ± 1.4 | 30.1 ± 1.1 | – | 40 | –
C[n+]1c2ccccc2c(NC2CCCC2)c2[nH]c3ccccc3c21 [Example 29] | 30.5 ± 0.9 | 38.6 ± 4.6 | 36.5 ± 2.3 | 30 | – | –
C[n+]1c2ccccc2cc2c1c1ccccc1n2S(=O)(=O)c1ccccc1 [Example 22] | 15.5 ± 1.1 | 14 ± 1.1 | 18.2 ± 1.1 | – | 45 ± 5 | pest or weed control at 400 µg/mL [4, 8]: > 50%
C[n+]1c2ccccc2c(N2CCN(CCN)CC2)c2[nH]c3ccc(Cl)cc3c21 [Reference Example 2, reference compound] | 15.3 ± 2.1 | 15.2 ± 1.1 | 18.1 ± 0.2 | 0 | – | bactericidal activity against rice sheath blight ([4]; live pot test, result in words, summary of Table 5 (400mg/L)): no activity
C[n+]1c2ccccc2c(NCC2CCNCC2)c2[nH]c3ccccc3c21.[I-] [Example 42] | – | – | – | – | – | Relative inhibition rate (%) Living passivation activity test [1, 9]: 25.1±0.2%; Relative inhibition rate (%) Live protection function [2, 10]: 28.1±3.0%; Relative inhibition rate (%) Live treatment effect [3, 11]: 30.2±2.1%; Resistance to rice sheath blight (%)/400mg/L ([4]; 400mg/L leaf spray on rice seedlings, inoculated after 24h, visual inspection 6 days after inoculation): 25±5%
C[n+]1c2ccccc2c(NC2CCNC2)c2[nH]c3ccccc3c21 (stereo not drawn) [Example 40] | 38.6 ± 2.5 | 45.8 ± 3.8 | 39.5 ± 3.1 | 20 | – | TMV activity [2, 6]: better TMV activity than the ribavirin
NC(=O)c1ncn([C@@H]2O[C@H](CO)[C@@H](O)[C@H]2O)n1 [ribavirin, reference compound] | – | – | – | – | – | inhibition at 500 µg/mL [1, 9]: 38 ± 1.3%; inhibition at 500 µg/mL [2, 10]: 39.5 ± 2%; inhibition at 500 µg/mL [3, 11]: 36.1 ± 3.7%
